According to PubChem BioAssay AID1259407 (Chemical Carcinogenesis Research Information System (CCRIS), 2018):
Calls of active or inactive are those of the source. The rule behind the calls is not given here.

System: CCRIS mutagenicity, Ames/micronucleus/aberration tests
Assay: CCRIS mutagenicity studies
[1] = Test System: AMES SALMONELLA TYPHIMURIUM, Strain/Indicator: TA98, Metabolic Activation: NONE, Method: STANDARD PLATE
[2] = Test System: AMES SALMONELLA TYPHIMURIUM, Strain/Indicator: TA100, Metabolic Activation: NONE, Method: STANDARD PLATE
[3] = Test System: AMES SALMONELLA TYPHIMURIUM, Strain/Indicator: TA1535, Metabolic Activation: NONE, Method: STANDARD PLATE
[4] = Test System: AMES SALMONELLA TYPHIMURIUM, Strain/Indicator: TA1537, Metabolic Activation: NONE, Method: STANDARD PLATE
[5] = Test System: AMES SALMONELLA TYPHIMURIUM, Strain/Indicator: TA1538, Metabolic Activation: NONE, Method: STANDARD PLATE

CN(CCCCO)N=O
mutagenic call (Test System: AMES SALMONELLA TYPHIMURIUM, Strain/Indicator: TA1535, Metabolic Activation: RAT, LIVER, S-9, KC500 OR PHENOBARBITAL, Method: LIQUID SUSPENSION): active; positive

Cc1ccc(N)cc1Cl
mutagenic call [1]: inactive; negative
mutagenic call (Test System: AMES SALMONELLA TYPHIMURIUM, Strain/Indicator: TA98, Metabolic Activation: RAT, LIVER, S-9, AROCLOR 1254, Method: STANDARD PLATE): inactive; negative
mutagenic call [2]: inactive; negative
mutagenic call (Test System: AMES SALMONELLA TYPHIMURIUM, Strain/Indicator: TA100, Metabolic Activation: RAT, LIVER, S-9, AROCLOR 1254, Method: STANDARD PLATE): inactive; negative
mutagenic call [3]: inactive; negative
mutagenic call (Test System: AMES SALMONELLA TYPHIMURIUM, Strain/Indicator: TA1535, Metabolic Activation: RAT, LIVER, S-9, AROCLOR 1254, Method: STANDARD PLATE): inactive; negative
mutagenic call [4]: inactive; negative
mutagenic call (Test System: AMES SALMONELLA TYPHIMURIUM, Strain/Indicator: TA1537, Metabolic Activation: RAT, LIVER, S-9, AROCLOR 1254, Method: STANDARD PLATE): inactive; negative
mutagenic call [5]: inactive; negative
mutagenic call (Test System: AMES SALMONELLA TYPHIMURIUM, Strain/Indicator: TA1538, Metabolic Activation: RAT, LIVER, S-9, AROCLOR 1254, Method: STANDARD PLATE): inactive; negative
mutagenic call (Test System: CHINESE HAMSTER OVARY, Strain/Indicator: CHO-K1-BH4 (HPRT)/6-THIOGUANINE, Metabolic Activation: NONE): inactive; negative
mutagenic call (Test System: CHINESE HAMSTER OVARY, Strain/Indicator: CHO-K1-BH4 (HPRT)/6-THIOGUANINE, Metabolic Activation: RAT, LIVER, S-9, AROCLOR 1254): inactive; negative

Fc1cnc2c(ccc3ccccc32)c1
mutagenic call (Test System: AMES SALMONELLA TYPHIMURIUM, Strain/Indicator: TA100, Metabolic Activation: RAT, LIVER, S-9, PHENOBARBITAL AND 5,6-BENZOFLAVONE, Method: PREINCUBATION): inactive; negative

Nc1ccc2c(c1)[nH]c1ccccc12
mutagenic call [1]: active; positive
mutagenic call (Test System: AMES SALMONELLA TYPHIMURIUM, Strain/Indicator: TA98, Metabolic Activation: RAT, LIVER, S-9, PHENOBARBITAL, Method: STANDARD PLATE): active; positive
mutagenic call [2]: inactive; negative
mutagenic call (Test System: AMES SALMONELLA TYPHIMURIUM, Strain/Indicator: TA100, Metabolic Activation: RAT, LIVER, S-9, PHENOBARBITAL, Method: STANDARD PLATE): active; positive
mutagenic call [4]: inactive; negative
mutagenic call [5]: active; positive
mutagenic call (Test System: AMES SALMONELLA TYPHIMURIUM, Strain/Indicator: TA1538, Metabolic Activation: RAT, LIVER, S-9, PHENOBARBITAL, Method: STANDARD PLATE): active; positive
mutagenic call (Test System: AMES SALMONELLA TYPHIMURIUM, Strain/Indicator: TA1977, Metabolic Activation: NONE, Method: STANDARD PLATE): inactive; negative
mutagenic call (Test System: AMES SALMONELLA TYPHIMURIUM, Strain/Indicator: TA1977, Metabolic Activation: RAT, LIVER, S-9, PHENOBARBITAL, Method: STANDARD PLATE): inactive; negative

Cn1c2ccccc2c2nn[n+]([O-])c(C(=O)OCCCl)c21
mutagenic call (Test System: AMES SALMONELLA TYPHIMURIUM, Strain/Indicator: TA97, Metabolic Activation: NONE, Method: STANDARD PLATE): active; positive
mutagenic call (Test System: AMES SALMONELLA TYPHIMURIUM, Strain/Indicator: TA97, Metabolic Activation: RAT, LIVER, S-9, AROCLOR 1254 (4%, 10%), Method: STANDARD PLATE): active; positive
mutagenic call [1]: active; positive
mutagenic call (Test System: AMES SALMONELLA TYPHIMURIUM, Strain/Indicator: TA98, Metabolic Activation: RAT, LIVER, S-9, AROCLOR 1254 (4%, 10%), Method: STANDARD PLATE): active; positive
mutagenic call [2]: inactive; negative
mutagenic call (Test System: AMES SALMONELLA TYPHIMURIUM, Strain/Indicator: TA100, Metabolic Activation: RAT, LIVER, S-9, AROCLOR 1254 (4%, 10%), Method: STANDARD PLATE): inactive; negative
mutagenic call (Test System: AMES SALMONELLA TYPHIMURIUM, Strain/Indicator: TA102, Metabolic Activation: NONE, Method: STANDARD PLATE): inactive; negative
mutagenic call (Test System: AMES SALMONELLA TYPHIMURIUM, Strain/Indicator: TA102, Metabolic Activation: RAT, LIVER, S-9, AROCLOR 1254 (4%, 10%), Method: STANDARD PLATE): inactive; negative

C[15NH][15N]=O
mutagenic call [3]: active; positive
mutagenic call (Test System: E. COLI, Strain/Indicator: WP2, Metabolic Activation: NONE, Method: STANDARD PLATE): active; positive
mutagenic call (Test System: E. COLI, Strain/Indicator: WP2 UVRA, Metabolic Activation: NONE, Method: STANDARD PLATE): active; positive

CN(C)c1nc(N(C)C)nc(N(C)C)n1
mutagenic call (Test System: AMES SALMONELLA TYPHIMURIUM, Strain/Indicator: TA100, Metabolic Activation: NONE, Method: PREINCUBATION): inactive; negative
mutagenic call (Test System: AMES SALMONELLA TYPHIMURIUM, Strain/Indicator: TA100, Metabolic Activation: RAT, LIVER, S-9, AROCLOR 1254 (4 OR 10%), Method: PREINCUBATION): inactive; negative
mutagenic call (Test System: AMES SALMONELLA TYPHIMURIUM, Strain/Indicator: TA100, Metabolic Activation: RAT, LIVER, S-9, AROCLOR 1254 (10%), Method: STANDARD PLATE): inactive; negative
mutagenic call (Test System: AMES SALMONELLA TYPHIMURIUM, Strain/Indicator: TA100, Metabolic Activation: RAT, LIVER, S-9, AROCLOR 1254 (30%), Method: PREINCUBATION): active; positive

O=c1c(O)c(-c2ccc(O)c(O)c2)oc2cc(O)ccc12
mutagenic call (End Point: IN VITRO CHROMOSOMAL ABERRATIONS, Test System: HUMAN HL60 CELLS, Metabolic Activation: NONE): active; positive (structural changes)
mutagenic call (End Point: IN VITRO CHROMOSOMAL ABERRATIONS, Test System: HUMAN TK6 CELLS, Metabolic Activation: NONE): active; positive (structural changes)
mutagenic call (End Point: IN VITRO MICRONUCLEUS, Test System: HUMAN HL60 CELLS, Metabolic Activation: NONE): active; positive
mutagenic call (End Point: IN VITRO MICRONUCLEUS, Test System: HUMAN TK6 CELLS, Metabolic Activation: NONE): active; positive
mutagenic call (Test System: Ames Salmonella typhimurium, Strain/Indicator: TA102, Metabolic Activation: None, Method: Preincubation): inactive; negative
mutagenic call (Test System: Ames Salmonella typhimurium, Strain/Indicator: TA102, Metabolic Activation: Rat, Liver, S-9, Aroclor 1254 in 0.154 M KCl, Method: Preincubation): inactive; negative

CSCNc1ccccc1
mutagenic call (Test System: AMES SALMONELLA TYPHIMURIUM, Strain/Indicator: TA100, Metabolic Activation: NONE, Method: SPOT TEST): active; positive
mutagenic call (Test System: AMES SALMONELLA TYPHIMURIUM, Strain/Indicator: TA100, Metabolic Activation: RAT, LIVER, S-9, AROCLOR 1254, Method: SPOT TEST): active; positive
mutagenic call (Test System: AMES SALMONELLA TYPHIMURIUM, Strain/Indicator: TA102, Metabolic Activation: NONE, Method: SPOT TEST): active; positive
mutagenic call (Test System: AMES SALMONELLA TYPHIMURIUM, Strain/Indicator: TA102, Metabolic Activation: RAT, LIVER, S-9, AROCLOR 1254, Method: SPOT TEST): active; positive

[N-]=[N+]=NC[C@H]1O[C@H](O)[C@H](O)[C@@H](O)[C@@H]1O
mutagenic call [1]: inactive; negative
mutagenic call [2]: active; positive
